Source: ChEMBL document CHEMBL1201862, “PubChem BioAssay data set” (2004)
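In this assay, cells in 96-well plates receive the compound at five concentrations for 48 hours. Endpoints are linearly interpolated between the surrounding concentrations. GI50: concentration for 50% inhibition of growth.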 Active and inactive are the calls of the source. Cut-off read from the data, not from the text of the source: active = GI50 up to about 1.1 µM and inactive = higher.

How the values were obtained:
Experiment in all cases: DTP human tumour cell line panel, 48 h
[1] = test system: A498
[2] = test system: A549
[3] = test system: ACHN
[4] = test system: CAKI-1
[5] = test system: CCRF-CEM
[6] = test system: COLO 205
[7] = test system: DLD-1
[8] = test system: DMS-114
[9] = test system: DMS-273
[10] = test system: EKVX
[11] = test system: HCC 2998
[12] = test system: HCT-116
[13] = test system: HCT-15
[14] = test system: HL-60
[15] = test system: HOP-62
[16] = test system: HOP-92
[17] = test system: HT-29
[18] = test system: IGROV-1
[19] = test system: K562
[20] = test system: KM-20L2
[21] = test system: KM12
[22] = test system: LXFL 529
[23] = test system: M14
[24] = test system: MOLT-4
[25] = test system: Malme-3M
[26] = test system: NCI-H226
[27] = test system: NCI-H23
[28] = test system: NCI-H460
[29] = test system: NCI-H522
[30] = test system: OVCAR-3
[31] = test system: OVCAR-4
[32] = test system: OVCAR-5
[33] = test system: OVCAR-8
[34] = test system: RPMI-8226
[35] = test system: RXF 393
[36] = test system: SF-268
[37] = test system: SF-295
[38] = test system: SF-539
[39] = test system: SK-MEL-28
[40] = test system: SK-MEL-2
[41] = test system: SK-MEL-5
[42] = test system: SK-OV-3
[43] = test system: SN12C
[44] = test system: SNB-19
[45] = test system: SNB-75
[46] = test system: SNB-78
[47] = test system: SR
[48] = test system: SW-620
[49] = test system: TK-10
[50] = test system: U-251
[51] = test system: UACC-257
[52] = test system: UACC-62
[53] = test system: UO-31
[54] = test system: XF498
[55] = test system: LOX IMVI
[56] = test system: M19-MEL

CO/C(=N\N=C\c1ccc(Cl)cc1)c1ccncc1
GI50 [1]: > 100 µM (inactive)
GI50 [2]: > 100 µM (inactive)
GI50 [3]: > 100 µM (inactive)
GI50 [4]: > 100 µM (inactive)
GI50 [5]: > 100 µM (inactive)
GI50 [6]: > 100 µM (inactive)
GI50 [7]: > 100 µM (inactive)
GI50 [8]: > 100 µM (inactive)
GI50 [9]: > 100 µM (inactive)
GI50 [10]: > 100 µM (inactive)
GI50 [11]: > 100 µM (inactive)
GI50 [12]: > 100 µM (inactive)
GI50 [13]: > 100 µM
GI50 [14]: > 100 µM (inactive)
GI50 [15]: > 100 µM (inactive)
GI50 [16]: > 100 µM (inactive)
GI50 [17]: > 100 µM (inactive)
GI50 [18]: > 100 µM (inactive)
GI50 [19]: > 100 µM (inactive)
GI50 [20]: > 100 µM (inactive)
GI50 [21]: > 100 µM (inactive)
GI50 [22]: > 100 µM (inactive)
GI50 [23]: > 100 µM (inactive)
GI50 [24]: > 100 µM (inactive)
GI50 [25]: > 100 µM (inactive)
GI50 [26]: 59.7 µM (inactive)
GI50 [27]: > 100 µM (inactive)
GI50 [28]: > 100 µM (inactive)
GI50 [29]: > 100 µM (inactive)
GI50 [30]: > 100 µM (inactive)
GI50 [31]: > 100 µM (inactive)
GI50 [32]: > 100 µM (inactive)
GI50 [33]: > 100 µM (inactive)
GI50 [34]: > 100 µM (inactive)
GI50 [35]: > 100 µM (inactive)
GI50 [36]: > 100 µM (inactive)
GI50 [37]: > 100 µM (inactive)
GI50 [38]: > 100 µM (inactive)
GI50 [39]: > 100 µM (inactive)
GI50 [40]: > 100 µM (inactive)
GI50 [41]: > 100 µM (inactive)
GI50 [42]: > 100 µM (inactive)
GI50 [43]: > 100 µM (inactive)
GI50 [44]: > 100 µM (inactive)
GI50 [45]: 63 µM (inactive)
GI50 [46]: > 100 µM (inactive)
GI50 [47]: > 100 µM (inactive)
GI50 [48]: > 100 µM (inactive)
GI50 [49]: > 100 µM (inactive)
GI50 [50]: > 100 µM (inactive)
GI50 [51]: > 100 µM (inactive)
GI50 [52]: > 100 µM (inactive)
GI50 [53]: > 100 µM (inactive)
GI50 [54]: > 100 µM (inactive)

O=c1n(Cc2ccccc2)c2ccccc2n1CC1CS1 (stereo not given)
GI50 [2]: > 100 µM (inactive)
GI50 [3]: > 100 µM (inactive)
GI50 [4]: > 100 µM (inactive)
GI50 [5]: > 100 µM (inactive)
GI50 [6]: > 100 µM (inactive)
GI50 [8]: > 100 µM (inactive)
GI50 [9]: > 100 µM (inactive)
GI50 [10]: > 100 µM (inactive)
GI50 [11]: > 100 µM (inactive)
GI50 [12]: > 100 µM (inactive)
GI50 [13]: > 100 µM
GI50 [14]: > 100 µM (inactive)
GI50 [15]: > 100 µM (inactive)
GI50 [16]: > 100 µM (inactive)
GI50 [18]: > 100 µM (inactive)
GI50 [19]: > 100 µM (inactive)
GI50 [20]: > 100 µM (inactive)
GI50 [21]: > 100 µM (inactive)
GI50 [55]: > 100 µM (inactive)
GI50 [22]: > 100 µM (inactive)
GI50 [23]: > 100 µM (inactive)
GI50 [56]: > 100 µM (inactive)
GI50 [24]: > 100 µM (inactive)
GI50 [25]: > 100 µM (inactive)
GI50 [26]: > 100 µM (inactive)
GI50 [29]: > 100 µM (inactive)
GI50 [30]: > 100 µM (inactive)
GI50 [31]: > 100 µM (inactive)
GI50 [32]: > 100 µM (inactive)
GI50 [33]: > 100 µM (inactive)
GI50 [34]: > 100 µM (inactive)
GI50 [36]: > 100 µM (inactive)
GI50 [37]: > 100 µM (inactive)
GI50 [38]: > 100 µM (inactive)
GI50 [39]: > 100 µM (inactive)
GI50 [40]: > 100 µM (inactive)
GI50 [42]: > 100 µM (inactive)
GI50 [43]: > 100 µM (inactive)
GI50 [44]: > 100 µM (inactive)
GI50 [45]: 58.6 µM (inactive)
GI50 [47]: > 100 µM (inactive)
GI50 [48]: > 100 µM (inactive)
GI50 [49]: > 100 µM (inactive)
GI50 [52]: > 100 µM (inactive)
GI50 [53]: > 100 µM (inactive)
GI50 [54]: > 100 µM (inactive)
